PMC7923178, “Binding of Amyloid β(1–42)-Calmodulin Complexes to Plasma Membrane Lipid Rafts in Cerebellar Granule Neurons Alters Resting Cytosolic Calcium Homeostasis” (International Journal of Molecular Sciences, 2021)

Tests used:
[1] = tested on: L-type calcium channels (LTCCs); experiment: LTCC contribution to resting cytosolic calcium (nifedipine-sensitive Fura-2 ratio)
calmodulin (CaM) [2] = experiment: Co-immunoprecipitation of CaM with anti-Aβ antibody in CGN lysates; assay type: binding, rat; conditions: CGN lysates treated with 10 mM methyl-β-cyclodextrin 30 min, western blot
calmodulin (CaM) [3] = experiment: Aβ(1–42) binding capacity of CaM in CGN, from western blot quantification of CaM; parameters: species or system rat; conditions: per Petri plate with […] 10^6 CGN cells (56 ± 6 picomoles CaM per plate); Aβ(1–42) largely dimers
mature CGN [4] = experiment: Resting cytosolic calcium, Fura-2 ratio (340/380) imaging; assay type: cell-based, rat; conditions: 2 μM, 2–5 h incubation; MLocke's K25 medium; control 160 ± 30 nM
[5] = target: purified calmodulin (CaM); conditions: previous work, read-out: dissociation constant of the complex with purified CaM; cited from earlier work
Text: Lipid rafts are a primary target in studies of amyloid β (Aβ) cytotoxicity in neurons. Exogenous Aβ peptides bind to lipid rafts, which in turn play a key role in Aβ uptake, leading to the formation of neurotoxic intracellular Aβ aggregates. On the other hand, dysregulation of intracellular calcium homeostasis in neurons has been observed in Alzheimer’s disease (AD). […] In this work, to experim ... || Dysregulation of intracellular calcium homeostasis in neurons is a common metabolic feature in both sporadic and familial forms of AD, which by itself can account for enhanced intraneuronal Aβ production and tau hyperphosphorylation potentiation. […] The ... || (+ 1 further places)

neurons = conditions: small oligomeric states of the peptide; cited from earlier work
mature CGN [6] = experiment: Internalization of Aβ(1–42) in mature CGN by fluorescence microscopy; conditions: 2 h incubation with 2 µM Aβ in extracellular medium (1.8 μM Aβ(1–42) plus 0.2 μM HiLyte-Fluor555 derivative), 37 °C, 5% CO2, assuming equal internalization rate, 102 cells

Row | Compound | difference between the ratio 340/380 in the absence and presence of nifedipine ([1]; CGN non-treated with amyloid β(1–42), nifedipine 2 μM or 10 µM) | blockade of Ca2+ entry in the soma ([1]; nifedipine 10 µM, untreated and Aβ-treated cells) | co-immunoprecipitation of CaM with anti-Aβ(1–42) antibody (calmodulin (CaM) [2]) | Aβ(1–42) that can be bound by CaM in CGN (calmodulin (CaM) [3]) | [Ca^2+]i (mature CGN [4]) | Kd [5] | half-time of internalization in neurons (neurons) | intracellular (internalized) concentration of Aβ monomers (mature CGN [6]) | inhibition of LTCC activity ([1]; 2 µM (monomers) in medium, 2 h incubation of mature CGN) | IC50 ([1]; read-out: concentration of internalized Aβ(1–42) dimers that inhibited by 50% the LTCC's activity, internalized dimers after 2 h with 2 µM monomers)
1 | COC(=O)C1=C(C)NC(C)=C(C(=O)OC)C1c1ccccc1[N+](=O)[O-] [nifedipine, Nifedipine] | 0.64 | totally blocks |  |  |  |  |  |  |  | 
2 | Aβ(1–42): Unlabeled amyloid β(1–42) peptide synthesized and supplied by StabVida |  |  | co-immunoprecipitation of CaM with the anti-Aβ(1–42) antibody | up to 120 ± 13 picomoles of Aβ(1–42) /2.5 × 10^6 cells | 71 ± 7 nM | ~1 nM | 12 to 14 h | 193 ± 21 nM | about 50% | < 100 nM
3 | Aβ(25–35): amyloid β peptide fragment 25–35, cited from previous work (GSNKGAIIGLM; Amyloid-beta protein 42; UniProt P05067 696-706, looked up, fragment) |  |  |  |  |  | ~1 nM |  |  |  | 
